Measurements published in patent US20110105389A1 (priority 2009, published 2011).

How the values were obtained:
[1] = Pharmacokinetic analysis (intravenous and oral), Method B9; format: in vivo
Outline: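 Compound concentration was typically 2 mg/mL for intravenous and 8 mg/mL for oral dosing. PK parameters such as elimination half-life and total plasma clearance were derived.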

[2] = target: CYP2D6 (Homo sapiens, UniProt P10635); experiment: biochemical
[3] = target: CYP3A4 (Homo sapiens, UniProt P08684); experiment: biochemical
[4] = tested on: rat stomach fundus strips; experiment: Ex-vivo potency evaluation on the rat stomach fundus (inhibition of ghrelin-induced contractility), Method B10; conditions: EFS
Outline: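 Male Wistar rat fundus strips in Krebs at 37 °C (5% CO2 in O2), 1.5 g resting tension, were subjected to EFS (0.5 ms pulses, 5 Hz, 70 V, 30 s every 3 min) with isometric tension recording. Responses were expressed as % of mean pre-drug EFS responses; IC50 for inhibiting ghrelin-induced contractility was determined.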

[5] = target: T1, ghrelin receptor (HEK-GHSR1 stable cells) (Homo sapiens, UniProt Q92847); experiment: Ghrelin receptor inverse agonist assay (HTRF IP-one), Method B4; format: cell-based
T1 construct: expressed in transfected cells
Outline: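 HEK cells stably expressing GHSR1, seeded at 100 000 cells/well overnight, exposed to compound for 30 min at 37° C. Cells then lysed and IP1 accumulation measured by HTRF (d2 plus anti-IP1 cryptate, 1 h at room temp). Wells lacking d2 served as negative control.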

[6] = Plasma protein binding (equilibrium dialysis), Method B5; format: in vitro ADME; conditions: human plasma, 60 min at 37° C., typically 10 μM
Description: B5. Plasma Protein Binding
The pharmacokinetic and pharmacodynamic properties of drugs are largely a function of the reversible binding of drugs to plasma or serum proteins such as albumin and α1-acid glycoprotein. In general, only unbound drug is available for diffusion or transport across cell membranes, and for interaction at the pharmacological target. On the other hand, drugs with low plasma protein binding generally have large volumes of distribution and rapid clearance since only unbound drug is available for glomerular filtration and, in some cases, hepatic clearance. Thus, the extent of plasma protein binding can influence efficacy, distribution and elimination. The ideal range for plasma protein binding is in the range of 87-98% for most drug products.
Protein binding studies were performed using human plasma. Briefly, 96-well microplates were used to incubate various concentrations of the test article for 60 min at 37° C. A concentration of 10 μM was a typical selection to be employed in this study. Bound and unbound fractions are separated by equilibrium dialysis, where the concentration remaining in the unbound fraction is quantified by LC-MS or LC-MS-MS analysis. […].

[7] = plasma, Table 10b, 2 mg/mL intravenous typically employed

Sequence of CYP2D6 (P10635 whole entry): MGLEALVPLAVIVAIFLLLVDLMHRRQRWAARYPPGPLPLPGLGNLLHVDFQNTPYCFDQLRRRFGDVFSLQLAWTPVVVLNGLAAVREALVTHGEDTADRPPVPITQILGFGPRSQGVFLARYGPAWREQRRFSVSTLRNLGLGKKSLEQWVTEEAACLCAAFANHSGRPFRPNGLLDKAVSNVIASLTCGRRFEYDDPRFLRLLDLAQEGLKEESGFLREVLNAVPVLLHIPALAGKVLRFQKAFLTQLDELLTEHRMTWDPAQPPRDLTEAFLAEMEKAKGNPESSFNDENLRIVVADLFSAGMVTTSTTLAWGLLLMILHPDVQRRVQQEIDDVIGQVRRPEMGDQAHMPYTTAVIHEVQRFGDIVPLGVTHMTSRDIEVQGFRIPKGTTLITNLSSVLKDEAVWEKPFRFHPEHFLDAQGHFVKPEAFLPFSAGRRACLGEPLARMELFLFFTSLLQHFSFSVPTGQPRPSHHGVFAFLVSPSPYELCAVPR
Sequence of CYP3A4 (P08684 whole entry): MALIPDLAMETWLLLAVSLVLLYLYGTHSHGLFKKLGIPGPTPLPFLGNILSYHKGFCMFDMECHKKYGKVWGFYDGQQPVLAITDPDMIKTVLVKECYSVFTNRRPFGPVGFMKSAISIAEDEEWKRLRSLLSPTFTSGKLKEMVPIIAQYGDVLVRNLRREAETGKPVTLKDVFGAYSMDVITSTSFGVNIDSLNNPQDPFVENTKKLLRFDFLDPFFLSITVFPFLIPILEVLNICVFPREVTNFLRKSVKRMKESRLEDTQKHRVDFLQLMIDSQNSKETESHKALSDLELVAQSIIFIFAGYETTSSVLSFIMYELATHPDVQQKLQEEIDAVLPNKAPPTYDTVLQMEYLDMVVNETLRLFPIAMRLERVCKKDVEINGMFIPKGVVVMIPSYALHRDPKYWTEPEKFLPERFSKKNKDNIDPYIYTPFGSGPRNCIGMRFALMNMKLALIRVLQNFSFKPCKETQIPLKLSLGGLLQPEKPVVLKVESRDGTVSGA
T1 sequence (Q92847 whole entry): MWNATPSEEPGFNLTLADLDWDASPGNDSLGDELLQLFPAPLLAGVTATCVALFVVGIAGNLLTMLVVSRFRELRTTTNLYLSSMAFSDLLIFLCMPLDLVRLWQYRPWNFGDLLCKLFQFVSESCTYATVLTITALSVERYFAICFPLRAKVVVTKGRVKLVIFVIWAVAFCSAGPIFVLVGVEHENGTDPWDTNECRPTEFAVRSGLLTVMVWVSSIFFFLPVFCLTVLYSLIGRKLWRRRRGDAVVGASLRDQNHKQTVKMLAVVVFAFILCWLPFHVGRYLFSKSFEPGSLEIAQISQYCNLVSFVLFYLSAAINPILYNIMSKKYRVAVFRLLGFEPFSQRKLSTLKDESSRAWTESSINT

Oral F ([1]; in vivo, po) | half-life ([1]; plasma) | clearance ([1]; plasma, intravenous) | IC50 [2] | IC50 [3] | IC50 [4] | IC50 [5] | fraction unbound at 60 min, 10 μM [6] | clearance [1, 7] | half-life [1, 7] | bioavailability ([1]; plasma, Table 10b, 2 mg/mL intravenous and 8 mg/mL oral typically employed) | SMILES
18% | 1.07 h | 23 mL/min/kg | 2100 nM | 700 nM | 12.5 nM | 100 to 500 nM | 0.036 | – | – | – | CC[C@@H]1CCc2ccc(F)cc2OCCN[C@@H](C(C)C)C(=O)N(C)[C@@H](C(C)O)C(=O)N[C@H](Cc2c[nH]c3ccccc23)C(=O)N1 (stereo partly shown) [Compound 1505]
– | – | – | 20200 nM | 8500 nM | 0.1 nM | 50 to 100 nM | 0.091 | – | – | – | CC(C)[C@@H]1NCCOc2ccccc2C#C[C@@H](C)NC(=O)[C@@H](Cc2ccccc2)NC(=O)[C@H](C(C)O)N(C)C1=O (stereo partly shown) [Compound 1688]
– | – | – | 21100 nM | 7700 nM | 12 nM | 100 to 500 nM | 0.076 | 26 ± 18 mL/min/kg | 0.983 ± 0.633 h | – | CC(O)[C@H]1C(=O)N[C@H](Cc2ccccc2)C(=O)NCCCc2cccc3c2OC(CC3)CN[C@@H](C2CC2)C(=O)N1C (stereo partly shown) [Compound 1778]
– | – | – | 35700 nM | 6000 nM | 12.1 nM | 50 to 100 nM | 0.061 | – | – | – | CC[C@@H]1NCC2CCc3cccc(c3O2)CCCNC(=O)[C@@H](Cc2ccccc2)NC(=O)[C@H](C(C)O)N(C)C1=O (stereo partly shown) [Compound 1780]
– | – | – | 23100 nM | 8500 nM | 60 nM | 50 to 100 nM | 0.05 | 28 ± 8 mL/min/kg | 2.65 ± 0.267 h | 54 ± 19% | CC(O)[C@H]1C(=O)N[C@H](Cc2ccccc2)C(=O)NCC#Cc2c(F)cccc2OCCN[C@@H](C2(C)CC2)C(=O)N1C (stereo partly shown) [Compound 1876]
– | – | – | 45300 nM | 11600 nM | 30 nM | 10 to 50 nM | 0.127 | 35 ± 1 mL/min/kg | 2.07 ± 0.317 h | – | CC(O)[C@H]1C(=O)N[C@H](Cc2ccccc2)C(=O)NCC#Cc2ccccc2OCCN[C@@H](C2(C)CC2)C(=O)N1C (stereo partly shown) [Compound 1878]
